Consider one compound from US20220125877A1, “METHOD FOR TREATING COLORECTAL CANCER” (SUN YAT-SEN UNIVERSITY, priority 2019, published 2022).

For test [1], the system named is LoVo cells. The test is described as follows: Azacitidine treatment: MATE1 expression and anti-proliferation effect of metformin. In kind it is cell-based, human. The following applies: FIGS. 16E-F.
For test [2], the system named is KRAS (G13D) mutation SW48 cell line. The description is as above. To be noted: FIGS. 16E-F. Format: cell-based, human.

With `Nc1ncn([C@@H]2O[C@H](CO)[C@@H](O)[C@H]2O)c(=O)n1` [azacitidine], the “expression of MATE1” value in test [1] and in test [2] was “up-regulate the expression of MATE1” in each case. In addition, the “effect on the anti-tumor proliferation effect of metformin” value in test [1] (with metformin) and in test [2] (with metformin) was “inhibiting the anti-tumor proliferation effect of metformin” each time.
